Experimental data: US7615523B2, “Lens care product containing dexpanthenol” (Novartis AG, priority 2006, dated 2009)

Experiments:
[1] = stabilisation of the lachrymal film when inserting contact lenses; settings: when/after inserting the contact lenses
Text: Dexpanthenol, an alcohol of pantothenic acid, also called Provitamin B5, D-pantothenyl alcohol or D-panthenol, has been used for a long time for healing wounds or in the field of medicinal skin care. […] Vortex motion of the lachrymal liquid can occur through the insertion of contact lenses, namely because of mechanical eruption or through surface-active substances optionally present in the contact lens solution and can lead to severe loss of the aqueous lachrymal layer. […] This guards against the appearance of dryness, which can lead to a reduced lachrymal film.
The addition of D-sorbit to adjust the tonicity of contact lens care products is known. GB 2,205,175 and U.S. Pat. No. 3,888,782 describe sorbit as a carrier material for the preparation of powder mixtures for contact lens care products. […] This guards against the appearance of dryness, which can lead to a reduced lachrymal film. […] Negative effects caused by surface-active substances and preservatives are reduced and the contact lenses are prevented from drying out.

[2] = antimicrobial (microbiological) efficacy of contact lens care solutions; settings: addition of sorbit to contact lens care compositions
[3] = cytotoxicity studies on addition of dexpanthenol and D-sorbit; assay type: cell-based; settings: addition of sorbit to compositions containing antimicrobial compounds, e.g. PHMB

lachrymal film stabilisation [1]	SMILES	effect on microbiological efficacy of antimicrobial compounds present, e.g. PHMB [2]	toxicity [3]
stabilises the lachrymal film	CC(C)(CO)[C@@H](O)C(=O)NCCCO [dexpanthenol]	–	–
–	OC[C@@H](O)[C@@H](O)[C@H](O)[C@@H](O)CO [sorbit, D-sorbit]	substantially increases the microbiological efficacy	without resulting in negative effects as regards toxicity
